What is called Kd is the equilibrium constant for the complex coming apart. Usually IC50 stands for the concentration needed to halve the response being measured. The low end stands for greater potency, the high end for weaker potency.

Here are results for one molecule from publication PMC8190080, “Tanshinones induce tumor cell apoptosis via directly targeting FHIT” (Scientific Reports, 2021).

The target of one series is T1, FHIT (Homo sapiens, UniProt P49789).
T1 construct: GST (N, cleaved yes); made in house; host or cells: E. coli BL21 (DE3)
T1 sequence (P49789 whole entry): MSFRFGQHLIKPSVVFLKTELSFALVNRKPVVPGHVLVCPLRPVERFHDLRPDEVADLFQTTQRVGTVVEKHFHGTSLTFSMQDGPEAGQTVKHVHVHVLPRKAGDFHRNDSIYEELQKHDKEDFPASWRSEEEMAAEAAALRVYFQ
Kind of series: Cellular MST assay, HEK293T cell lysate containing GFP tagged FHIT. The series is classed as binding. The note with it: GFP-FHIT in HEK293T cell lysate, 25 °C. On the procedure:
(§1) Ten million 293 cells overexpressing GFP-tagged FHIT or free GFP were lysed in 0.5 mL M-PER mammalian protein extraction reagent (Thermo Fisher Scientific). Cell lysates were diluted in PBS buffer to a final concentration at which the fluorescent signals of the GFP proteins were suitable for the detection of the Monolith NT.115 instrument (NanoTemper Technologies). A single point screening assay was developed against GFP-FHIT protein to find potential binding molecules from compound libraries (L1021,APExBIO). For binding affinity detection, a 10µL protein sample was mixed with 10µL ligand at various concentrations as indicated. And the purified proteins were labeled by Red- NHS kit in accordance with the manufacturer’s protocol (MO-L011, NanoTemper Technologies). Then the mixture solutions were loaded into NT.115 standard coated capillaries or premium coated capillaries (NanoTemper Technologies), and the MST measurements were performed at 25 °C. The fluorescence signal during the thermophoresis was monitored and the change in fluorescence was analyzed by software. The Kd was calculated by fitting a standard binding curve to the series diluted ligands. And data were analyzed by GraphPad Prism 7.0.

For another series, the target named is T2, FHIT truncation TR3 (Homo sapiens, UniProt P49789).
T2 construct: expressed in transfected cells; host or cells: HEK293T / 293 cells (inferred from the cellular MST method)
T2 sequence (P49789 109-147 limits assumed): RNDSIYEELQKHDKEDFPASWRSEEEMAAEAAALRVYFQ
The experiment in a line: Cellular MST assay, GFP tagged FHIT truncation TR3 (C-terminal only). The series is classed as binding. On the procedure:
as §1

The target in another series is FHIT truncation TR2 (Homo sapiens, UniProt P49789). Kind of series: Cellular MST assay, GFP tagged FHIT truncation TR2. The series is classed as binding. On the procedure:
as §1

The next series deals with T3, HINT1 (Homo sapiens, UniProt P49773).
T3 construct: 6xHis (N); made in house; host or cells: E. coli BL21(DE3)
T3 sequence (P49773 whole entry): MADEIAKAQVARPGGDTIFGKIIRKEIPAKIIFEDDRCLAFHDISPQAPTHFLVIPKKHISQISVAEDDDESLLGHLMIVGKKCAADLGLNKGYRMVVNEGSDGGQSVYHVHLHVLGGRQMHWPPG
Kind of series: MST assay, purified HINT1. It counts as binding.

Another series concerns the target T4, DCPS (Homo sapiens, UniProt Q96C86).
T4 construct: 6xHis (N); made in house; host or cells: E. coli BL21(DE3)
T4 sequence (Q96C86 1-337): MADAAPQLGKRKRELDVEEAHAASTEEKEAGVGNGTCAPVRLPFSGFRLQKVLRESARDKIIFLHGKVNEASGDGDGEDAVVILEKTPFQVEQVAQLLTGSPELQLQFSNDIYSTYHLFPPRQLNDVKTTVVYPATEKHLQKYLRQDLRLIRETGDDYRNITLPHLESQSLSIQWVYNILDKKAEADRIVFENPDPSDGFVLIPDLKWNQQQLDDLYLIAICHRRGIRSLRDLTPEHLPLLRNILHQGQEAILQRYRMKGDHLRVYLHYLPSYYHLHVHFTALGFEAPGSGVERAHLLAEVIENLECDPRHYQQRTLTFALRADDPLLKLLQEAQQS
The experiment in a line: MST assay, purified DCPS. The series is classed as binding.

Series [1] has as its target T5, ENPP1 (Homo sapiens, UniProt P22413).
T5 sequence (P22413 1-925): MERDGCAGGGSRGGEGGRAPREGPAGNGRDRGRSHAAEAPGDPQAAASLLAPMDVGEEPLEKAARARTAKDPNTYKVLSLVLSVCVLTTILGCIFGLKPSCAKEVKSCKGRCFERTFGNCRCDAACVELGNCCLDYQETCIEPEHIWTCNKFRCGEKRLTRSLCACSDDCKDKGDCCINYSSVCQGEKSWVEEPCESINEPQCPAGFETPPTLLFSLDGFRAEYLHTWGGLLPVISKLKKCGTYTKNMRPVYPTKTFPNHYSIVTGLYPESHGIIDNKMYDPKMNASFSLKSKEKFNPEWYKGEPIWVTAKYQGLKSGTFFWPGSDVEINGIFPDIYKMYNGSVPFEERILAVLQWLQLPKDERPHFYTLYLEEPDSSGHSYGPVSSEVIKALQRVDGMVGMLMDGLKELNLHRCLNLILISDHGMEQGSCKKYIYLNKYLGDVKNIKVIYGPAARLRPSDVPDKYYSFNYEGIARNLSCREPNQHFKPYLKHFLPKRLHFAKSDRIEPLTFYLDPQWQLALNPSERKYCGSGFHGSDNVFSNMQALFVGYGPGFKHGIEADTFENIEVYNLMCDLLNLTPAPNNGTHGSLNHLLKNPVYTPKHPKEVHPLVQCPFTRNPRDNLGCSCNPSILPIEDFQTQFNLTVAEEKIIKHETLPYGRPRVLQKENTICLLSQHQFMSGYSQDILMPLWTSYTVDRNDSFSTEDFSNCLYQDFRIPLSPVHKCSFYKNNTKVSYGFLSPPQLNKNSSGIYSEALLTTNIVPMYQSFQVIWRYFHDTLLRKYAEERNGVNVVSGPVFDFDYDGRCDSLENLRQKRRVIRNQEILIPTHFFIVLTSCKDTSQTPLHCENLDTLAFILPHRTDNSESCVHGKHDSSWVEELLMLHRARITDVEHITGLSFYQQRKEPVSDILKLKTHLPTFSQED
The experiment in a line: MST assay, ENPP1. It counts as binding.

Series [2] concerns the target T5, ENPP1. The experiment in a line: ENPP1 hydrolase activity detection assay (Ap3A, ADP-Glo). The series is classed as biochemical. The following applies: ENPP1 4 ng/µl, 4 µM Ap3A. Background: ADP-Glo first removes unused ATP, then detects ADP through luciferase.
Protocol: ENPP1 protein (4ng/µl) was mixed with series diluted compounds as indicated in assay buffer (50mM Tris-HCl, 2mM CaCl2, 2mM MgCl2, pH9.0) in a final DMSO concentration of 1% in a total volume of 20μL. The mixtures were incubated for 30min at 25°C, then 4µM Ap3A was added. After incubation at 25°C for 10min, ENPP1 should be inactivated at 85°C for 5min.
Then the production of ADP in the reaction system was detected by ADP-Glo reagent (V6930, Promega) according to the manufacturer’s protocol in 384-well. Luminescence was read by spark (TECAN), an integration time of 1 second per well. And the data were analyzed by
A further series concerns the target FHIT truncation TR1 (Homo sapiens, UniProt P49789). Kind of series: Cellular MST assay, GFP tagged FHIT truncation TR1. It counts as binding. On the procedure:
as §1

The target of the next series is T6, FHIT (H96N) (Homo sapiens, UniProt P49789, H96N).
T6 construct: GST (N, cleaved yes); made in house; host or cells: E. coli BL21 (DE3)
T6 sequence (P49789 whole entry H96N): as the sequence (P49789 whole entry) above, with H96N counted along it
Kind of series: Fluorescence polarization assay, FHIT H96N-ApppBODIPY binding inhibition. The following applies: 5 µM FHIT (H96N), 1 µM ApppBODIPY. The procedure:
The binding of FHIT (H96N) to fluorescein-labeled substrates ApppBODIPY was analyzed by fluorescence polarization assay in 384-well format for dose–response curve studies using spark instrument (TECAN) according to the protocol reported before. And 5 µM FHIT (H96N) protein was incubated with 1 µM fluorescein-labeled substrates in buffer A (25 mM Tris–HCl, pH 7.5, 5 mM MgCl2 and 2 mM DTT) with series diluted inhibitors as indicated. Each sample was allowed to equilibrate in the solution for 30 min. After 30 min, the steady-state fluorescence anisotropy (mP) was measured. A second reading was taken after 10 min, to ensure that the mixture was well-equilibrated and stable. Less than 5% change was observed between 30 and 40 min measurements. The IC50 value was determined by fitting the binding curves using GraphPad Prism 7.0.

In the next series the test system is HCT116 cells. Kind of series: CCK-8 assay for cell inhibitory rate. The series is classed as cell-based, human. The note with it: WT HCT116 cells, concentration as high as 100 µM. On the procedure:
The CCK-8 (Cell-Counting Kit-8) assay was used to detect the cells’inhibitory rate following the manufacturer’s protocol (APExBIO). Cells were seeded into 96-well plates at the density of 4 × 10^3(cells/well) overnight at 37 °C. After that, the culture medium was removed and the cells were treated with different concentrations of TSA (0, 1, 2, 5, 10 µM) or STS (0, 10, 25, 50, 100 µM) for 24 h, 48 h, 72 h respectively. Then 10 μL CCK-8 reagent was added into each well and incubated for another 2 h, OD450 was measured by a microplate reader (spark, TECAN).
(Formazan colour is commonly taken as a measure of viable cells.)

Chain of FHIT truncation TR1 (P49789 2-109): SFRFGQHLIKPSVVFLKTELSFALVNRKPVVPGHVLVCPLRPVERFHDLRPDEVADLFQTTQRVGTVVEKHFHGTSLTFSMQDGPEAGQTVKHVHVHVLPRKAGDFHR
Chain of FHIT truncation TR2 (P49789 whole entry, the tested form may be a part): as the sequence (P49789 whole entry) above

With `Cc1c(S(=O)(=O)O)oc2c1C(=O)C(=O)c1c-2ccc2c1CCCC2(C)C` [STS, Sodium tanshinone IIA sulfonate], the Kd was 0.268 ± 0.0426 µM at FHIT; “No Kd value was calculated” at FHIT truncation TR3; 58.2 µM on FHIT truncation TR2; 9.31 ± 0.4 µM on DCPS; 27.2 ± 1.96 µM on ENPP1 [1]; 75.1 µM on FHIT truncation TR1. For the same molecule, the “direct binding (MST binding curve)” value on HINT1 is on record as “no direct binding curve was observed”. The half-maximal inhibitory concentration (IC50) against ENPP1 [2] amounted to 57.9 ± 15.1 µM; on FHIT (H96N), 2.2 ± 0.05 µM. For the same molecule, in the series with HCT116 cells, the “cytotoxicity (CCK8)” value is given as “no cytotoxicity”.
